In PubChem BioAssay (NCI):
Where “and” joins values, the source holds several entries; their conditions need not be identical. Identical values can stand only once.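 Exposure lasted 48 hours, with cells grown in 96-well plates and compounds tested at five concentrations. GI50 is the concentration that inhibits growth by half. TGI denotes the concentration required for complete inhibition of growth.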

What was measured:
Assay in all cases: growth of human tumour cells (NCI), 48 h
SF-295 CNS = tested on: SF-295 CNS
NCI/ADR-RES ovarian = tested on: NCI/ADR-RES ovarian
BT-549 breast = tested on: BT-549 breast
CAKI-1 renal = tested on: CAKI-1 renal
786-0 renal = tested on: 786-0 renal
MALME-3M melanoma = tested on: MALME-3M melanoma
HL-60(TB) leukemia = tested on: HL-60(TB) leukemia
HCT-116 colon = tested on: HCT-116 colon
NCI-H226 lung = tested on: NCI-H226 lung
DU-145 prostate = tested on: DU-145 prostate

Row | SMILES | GI50 (SF-295 CNS) | TGI (SF-295 CNS) | GI50 (NCI/ADR-RES ovarian) | TGI (NCI/ADR-RES ovarian) | GI50 (BT-549 breast) | TGI (BT-549 breast) | GI50 (CAKI-1 renal) | TGI (CAKI-1 renal) | GI50 (786-0 renal) | TGI (786-0 renal) | GI50 (MALME-3M melanoma) [µM] | TGI (MALME-3M melanoma) | GI50 (HL-60(TB) leukemia) | TGI (HL-60(TB) leukemia) | GI50 (HCT-116 colon) | TGI (HCT-116 colon) [µM] | GI50 (NCI-H226 lung) | TGI (NCI-H226 lung) | GI50 (DU-145 prostate) | TGI (DU-145 prostate)
1 | COc1cc(C)cc2c1OC(c1ccccc1)CC2=O (centres undefined) | > 100 µM | > 100 µM | > 100 µM | > 100 µM | > 100 µM | > 100 µM | > 100 µM | > 100 µM | > 100 µM | > 100 µM | > 100 | > 100 µM | > 100 µM | > 100 µM | > 100 µM | > 100 | > 100 µM | > 100 µM | > 100 µM | > 100 µM
2 | Cn1cnc2c(F)c(Nc3ccc(Br)cc3Cl)c(C(=O)NOCCO)cc21 | > 10 µM and 67.2 µM | > 100 µM | > 100 µM | > 100 µM | > 10 µM and 30 µM | > 100 µM | > 2.6 µM and 17.9 µM | > 100 µM | > 10 µM and 60.6 µM | > 100 µM | < 0.0187 | 0.018 µM | 0.0218 µM | > 10 µM and 5.35 µM | 0.648 µM and 1.07 µM | > 100 | > 10 µM and 23.9 µM | > 100 µM | > 10 µM and 74.6 µM | > 100 µM
3 | CCCCCC(=O)N1c2ccccc2NC2=C(C(=O)CC(c3ccc(OC)c(OC)c3)C2)C1c1ccc(C(F)(F)F)cc1 (centres undefined) | > 100 µM | > 100 µM | > 100 µM | > 100 µM | > 100 µM | > 100 µM | 35.6 µM | > 100 µM | > 100 µM | > 100 µM | > 100 | > 100 µM | > 100 µM | > 100 µM | 72.1 µM | > 100 | > 100 µM | > 100 µM | > 100 µM | > 100 µM
4 | N#Cc1nc(-c2cccc(Br)c2)cc(-c2ccc(Nc3nc(N4CCCCC4)nc(N4CCCCC4)n3)cc2)c1N | 2.72 µM | 8.81 µM | 3.33 µM | > 100 µM | 2.02 µM | 4.36 µM | 1.93 µM | 5.03 µM | 3.29 µM | > 100 µM | 1.68 | 3.1 µM | 2.27 µM | 6.47 µM | 1.55 µM | 3.19 | 1.85 µM | 3.94 µM | 3.13 µM | 10.2 µM
5 | O=C1C(NCCO)=C(N2CC2)C(=O)C(NCCO)=C1N1CC1 |  | 64.6 µM |  | > 100 µM |  | > 100 µM |  | > 100 µM |  | > 60.9 µM |  | > 100 µM |  | 57.6 µM |  | 67.1 |  | > 94.4 µM |  | > 100 µM
6 | COc1cc(N2CCC(N(C)C)CC2)ccc1Nc1ncc(Cl)c(Nc2ccccc2P(C)(C)=O)n1 | 1.81 µM and 0.409 µM | 15.8 µM and > 5.44 µM | 15.6 µM and > 6.15 µM | 98.1 µM and > 10 µM | 2.98 µM and 0.791 µM | 9.97 µM and 4.35 µM | 3.24 µM and 0.326 µM | 10.5 µM and > 4.56 µM | 1.12 µM and 0.483 µM | 10 µM and > 6.3 µM |  | 31.7 µM and > 7.77 µM | 1.25 µM and 0.168 µM | 11.6 µM and > 5.33 µM | 1.4 µM and 0.183 µM | > 39.2 | 0.454 µM and 0.0582 µM | 2.76 µM and 4.21 µM | 0.972 µM and 0.545 µM | > 25.2 µM and 3.8 µM
7 | S=C(Nc1ccccc1)c1ccccn1 | 32.8 µM | > 100 µM | 52.1 µM | > 100 µM | 73.9 µM | > 100 µM | 40.3 µM | > 100 µM | > 100 µM | > 100 µM | > 100 | > 100 µM | 31.3 µM | > 100 µM | 51.3 µM | > 100 | > 100 µM | > 100 µM | 53 µM | > 100 µM
8 | COc1ccc(NC2=C(Sc3nc(C)cc(C)n3)C(=O)N(Cc3ccccc3)C2=O)cc1Cl | 74.9 µM | > 160 µM | > 160 µM | > 160 µM | 89.5 µM | > 160 µM | > 160 µM | > 160 µM | 49.2 µM | > 160 µM | > 160 | > 160 µM | 140 µM | > 160 µM | 39 µM | > 160 | 39.5 µM | > 160 µM | > 160 µM | > 160 µM
9 | C#Cc1cccc(NC(=O)Nc2ccc(NC(=O)CCl)cc2)c1 | > 82.5 µM | > 82.5 µM | 23.3 µM | 70 µM | 11.9 µM | 24.1 µM | 15.7 µM | 36.2 µM | 12.5 µM | 23.7 µM | 12.1 | 23.9 µM | 14.9 µM | 33.4 µM | 20.1 µM | > 82.5 | 22.4 µM | 73.9 µM | 32.7 µM | > 82.5 µM
10 | Cc1cccc(C(C)O)n1 (centres undefined) |  | > 100 µM |  | > 100 µM |  | > 100 µM |  | > 100 µM |  | > 100 µM |  | > 100 µM |  | > 100 µM |  | > 100 |  | > 100 µM |  | > 100 µM
11 | CC(C)(C)Cn1c(N)nc2ccc(-c3[nH]c(C(C)(C)C)nc3-c3ccc(F)cc3)nc21 | 7.82 µM | 22 µM | 8.67 µM | 33.1 µM | 12.1 µM | 26 µM | 3.91 µM | 21.1 µM | 9.75 µM | 25.9 µM | 4.08 | 18.1 µM | 19.9 µM | 81.4 µM | 6.75 µM | 23 | 12.2 µM | 35.9 µM | 10.6 µM | 23.5 µM
12 | C[C@]12CC[C@H]3[C@@H](CC=C4C[C@@H](O)CC[C@@]43C)[C@@H]1C/C(=C\c1cccc(OCCN3CCOCC3)c1)[C@@H]2O | 89.4 µM | > 100 µM | 74.1 µM | > 100 µM | 27 µM | 95.1 µM | > 100 µM | > 100 µM | 50.7 µM | > 100 µM | 29.8 | 65.1 µM | 21.5 µM | > 100 µM | 80.6 µM | > 100 | > 100 µM | > 100 µM | > 100 µM | > 100 µM
